Converted amounts (≈) assume the structure as drawn. Where two headings read alike, the source gives them in different places.
Legend:
[1] = tested on: Mycobacterium smegmatis ATCC 19420; assay: MIC, broth microdilution (CLSI); type: cell-based; conditions: M. smegmatis ATCC 19420, 16-20 h, mode of three experiments
[2] = tested on: Klebsiella pneumoniae ATCC 700603; assay: MIC, broth microdilution (CLSI); type: cell-based; conditions: K. pneumoniae ATCC 700603, 16-20 h, mode of three experiments
[3] = tested on: Acinetobacter baumannii NCTC 13420; assay: MIC, broth microdilution (CLSI); type: cell-based; conditions: A. baumannii NCTC 13420, 16-20 h, mode of three experiments
[4] = tested on: Escherichia coli ATCC 25922; assay: MIC, broth microdilution (CLSI); type: cell-based; conditions: E. coli ATCC 25922, 16-20 h, mode of three experiments
[5] = tested on: Staphylococcus aureus ATCC 29213; assay: MIC, broth microdilution (CLSI); type: cell-based; conditions: S. aureus ATCC 29213, 16-20 h, mode of three experiments
[6] = tested on: Streptococcus pneumoniae ATCC 49619; assay: MIC, broth microdilution (CLSI); type: cell-based; conditions: S. pneumoniae ATCC 49619, 16-20 h, mode of three experiments
[7] = tested on: Haemophilus influenzae ATCC 49247; assay: MIC, broth microdilution (CLSI); type: cell-based; conditions: H. influenzae ATCC 49247, 16-20 h, mode of three experiments
[8] = tested on: Pseudomonas aeruginosa ATCC 27853; assay: MIC, broth microdilution (CLSI); type: cell-based; conditions: P. aeruginosa ATCC 27853, 16-20 h, mode of three experiments
HepG2 ATCC HB-8065 = assay: Human cell viability assay (CellTiter-Glo); type: cell-based; conditions: for IC50: Homo sapiens; for IC50 / IC50 HepG2: HepG2 cell viability, 24 h with compound, range 1-128 μg/mL
Experimental: Compounds are assessed for potential non-specific cytotoxic effects against a human hepatic cell line (HepG2 ATCC HB-8065). HepG2 cells are seeded at 20,000 cells/well in 96-well microtitre plates in minimal essential medium (MEM) supplemented with a final concentration of 10% FBS and 1 mM sodium pyruvate. After 24 h compound dilutions are prepared in Dulbecco's minimum essential media (DMEM) supplemented with final concentrations of 0.001% FBS, 0.3% bovine albumin and 0.02% HEPES and added to cells. Compounds are tested in two-fold serial dilutions over a final concentration range of 1-128 μg/mL in a final DMSO concentration of 1% vol/vol. Chlorpromazine is used as a positive control. Cells are incubated with compound at 37° C. and 5% CO2 for a further 24 h, after which time the CellTiter-Glo reagent (Promega) is added. Luminescence is measured on a BMG Omega plate reader. Data are analysed using GraphPad Prism software to determine the concentration of compound that inhibits cell viability by fifty percent (IC50).

[9] = tested on: Enterobacter cloacae NCTC 13406; assay: MIC, broth microdilution (CLSI); type: cell-based; conditions: E. cloacae NCTC 13406, 16-20 h, mode of three experiments
[10] = tested on: Acinetobacter baumannii ATCC 19606; assay: MIC, broth microdilution (CLSI); type: cell-based; conditions: A. baumannii ATCC 19606, 16-20 h, mode of three experiments
[11] = tested on: Klebsiella pneumoniae NCTC 13443; assay: MIC, broth microdilution (CLSI); type: cell-based; conditions: NCTC13443, K. pneumoniae NCTC 13443, 16-20 h, mode of three experiments
E. coli NCTC 13476 = assay: MIC, broth microdilution (CLSI); type: cell-based, Escherichia coli; conditions: mode of three experiments
E. coli ATCC BAA-2452 = assay: MIC, broth microdilution (CLSI); type: cell-based, Escherichia coli; conditions: 16-20 h, mode of three experiments
E. coli MG1655 S83L = type: cell-based, Escherichia coli; conditions: compared to the isogenic parent strain E. coli MG1655; S83L mutation on DNA gyrase subunit GyrA
E. coli MG1655 WT = assay: MIC, broth microdilution (CLSI); type: cell-based, Escherichia coli
E. coli MG1655 D87G = type: cell-based, Escherichia coli; conditions: compared to the isogenic parent strain E. coli MG1655; D87G mutation on DNA gyrase subunit GyrA
[12] = Klebsiella pneumoniae, ATCC700603, read-out: MIC
[13] = Acinetobacter baumannii, NCTC13420, read-out: MIC
[14] = Escherichia coli, ATCC25922, read-out: MIC
[15] = Staphylococcus aureus, ATCC29213, read-out: MIC
[16] = Streptococcus pneumoniae, ATCC49619, read-out: MIC
[17] = Haemophilus influenzae, ATCC49247, read-out: MIC
[18] = Pseudomonas aeruginosa, ATCC27853, read-out: MIC
[19] = Enterobacter cloacae, NCTC13406, read-out: MIC

| Compound | MIC [2, 12] [µg/mL] | MIC [3, 13] [µg/mL] | MIC [4, 14] [µg/mL] | MIC [5, 15] [µg/mL] | MIC [6, 16] [µg/mL] | MIC [7, 17] [µg/mL] | MIC [8, 18] [µg/mL] | IC50 (HepG2 ATCC HB-8065) [µg/mL] | MIC [9, 19] [µg/mL] | MIC [1] | MIC [2] | MIC [3] | MIC [4] | MIC [5] | MIC [6] | MIC [7] | MIC [8] | IC50 HepG2 (HepG2 ATCC HB-8065) | MIC [9] | MIC [10] | other results |
| --- | --- | --- | --- | --- | --- | --- | --- | --- | --- | --- | --- | --- | --- | --- | --- | --- | --- | --- | --- | --- | --- |
| COc1ccc2ccc(=O)n(CCN3C[C@@H]4CN(c5ccc6c(n5)NC(=O)CO6)C(=O)O[C@H]4C3)c2n1 (relative stereo) [Compound 1] | 10 to 100 (≈ 20.3 to 203 µM) | < 1 | < 1 | < 1 | < 1 | < 1 | 1 to 10 (≈ 2.03 to 20.3 µM) | > 100 | 1 to 10 (≈ 2.03 to 20.3 µM) | – | – | – | – | – | – | – | – | – | – | – | MIC ([1]; Mycolicibacterium smegmatis, ATCC19420, read-out: MIC): < 1 µg/mL |
| O=C1COc2ccc(N3C[C@@H]4CN(CCn5c(=O)ccc6ccc(Oc7cccnc7)nc65)C[C@@H]4OC3=O)nc2N1 (relative stereo) [Compound 7, rel-1-{2-[(4aS*,7aR*-2-oxo-3-{3-oxo-2H,3H,4H-pyrido[3,2-b][1,4]oxazin-6-yl}-octahydropyrrolo[3,4-e][1,3]oxazin-6-yl]ethyl}-7-(pyridin-3-yloxy)-1,2-dihydro-1,8-naphthyridin-2-one] | – | – | – | – | – | – | – | – | – | A (an MIC (in μg/mL) of less or equal to 1 is assigned the letter A) | C (a MIC of from 10 to 100 is assigned the letter C) | B (a MIC of from 1 to 10 is assigned the letter B) | B (a MIC of from 1 to 10 is assigned the letter B) | A (an MIC (in μg/mL) of less or equal to 1 is assigned the letter A) | A (an MIC (in μg/mL) of less or equal to 1 is assigned the letter A) | A (an MIC (in μg/mL) of less or equal to 1 is assigned the letter A) | C (a MIC of from 10 to 100 is assigned the letter C) | A (an IC50 of over 100 is assigned the letter A) | C (a MIC of from 10 to 100 is assigned the letter C) | – | – |
| COc1ccc2c3nocc3c(=O)n(CCN3C[C@H]4CN(c5ccc6c(n5)NC(=O)CO6)C(=O)O[C@H]4C3)c2c1 (relative stereo) [Compound 9, rel-(4aS*,7aR*-6-(2-{7-methoxy-4-oxo-4H,5H-[1,2]oxazolo[3,4-c]quinolin-5-yl}ethyl)-3-{3-oxo-2H,3H,4H-pyrido[3,2-b][1,4]oxazin-6-yl}-octahydropyrrolo[3,4-e][1,3]oxazin-2-one] | – | – | – | – | – | – | – | – | – | A (an MIC (in μg/mL) of less or equal to 1 is assigned the letter A) | D (a MIC of over 100 is assigned the letter D) | D (a MIC of over 100 is assigned the letter D) | C (a MIC of from 10 to 100 is assigned the letter C) | A (an MIC (in μg/mL) of less or equal to 1 is assigned the letter A) | B (a MIC of from 1 to 10 is assigned the letter B) | B (a MIC of from 1 to 10 is assigned the letter B) | D (a MIC of over 100 is assigned the letter D) | C (an IC50 of from 1 to 10 is assigned the letter C) | D (a MIC of over 100 is assigned the letter D) | A (an MIC (in μg/mL) of less or equal to 1 is assigned the letter A) | – |
| N#Cc1cccc(-c2cccc(CN3C[C@@H]4CN(c5ccc6c(n5)NC(=O)CO6)C(=O)O[C@H]4C3)c2O)n1 (relative stereo) [Compound 3] | > 100 | 1 to 10 (≈ 2.01 to 20.1 µM) | 1 to 10 (≈ 2.01 to 20.1 µM) | < 1 | 1 to 10 (≈ 2.01 to 20.1 µM) | 1 to 10 (≈ 2.01 to 20.1 µM) | > 100 | 10 to 100 (≈ 20.1 to 201 µM) | > 100 | – | – | – | – | – | – | – | – | – | – | – | MIC [11]: 1 to 10 µg/mL (≈ 2.01 to 20.1 µM); toxicity against HepG2 human hepatic cell line (in words) (HepG2 ATCC HB-8065; summary of Table 3): acceptable level of hepatic toxicity |
| N#Cc1ccc2ccc(=O)n(CCN3C[C@H]4CN(c5ccc6c(n5)NC(=O)CO6)C(=O)O[C@H]4C3)c2c1 (relative stereo) [Compound 10, rel-1-{2-[(4aS*,7aR*-2-oxo-3-{3-oxo-2H,3H,4H-pyrido[3,2-b][1,4]oxazin-6-yl}-octahydropyrrolo[3,4-e][1,3]oxazin-6-yl]ethyl}-2-oxo-1,2-dihydroquinoline-7-carbonitrile] | – | – | – | – | – | – | – | – | – | – | B (a MIC of from 1 to 10 is assigned the letter B) | B (a MIC of from 1 to 10 is assigned the letter B) | A (an MIC (in μg/mL) of less or equal to 1 is assigned the letter A) | A (an MIC (in μg/mL) of less or equal to 1 is assigned the letter A) | A (an MIC (in μg/mL) of less or equal to 1 is assigned the letter A) | A (an MIC (in μg/mL) of less or equal to 1 is assigned the letter A) | B (a MIC of from 1 to 10 is assigned the letter B) | A (an IC50 of over 100 is assigned the letter A) | A (an MIC (in μg/mL) of less or equal to 1 is assigned the letter A) | A (an MIC (in μg/mL) of less or equal to 1 is assigned the letter A) | MIC (E. coli NCTC 13476; 16-20 h): B (a MIC of from 1 to 10 is assigned the letter B); MIC (E. coli ATCC BAA-2452): A (an MIC (in μg/mL) of less or equal to 1 is assigned the letter A); Fold increase in MIC against E. coli MG1655 S83L (E. coli MG1655 S83L): 1 fold; MIC (E. coli MG1655 WT; E. coli MG1655 WT, 16-20 h, mode of three experiments): A (an MIC (in μg/mL) of less or equal to 1 is assigned the letter A); Fold increase in MIC against E. coli MG1655 D87G (E. coli MG1655 D87G): 1 fold; toxicity against HepG2 human hepatic cell line (in words) (HepG2 ATCC HB-8065): no detectable toxicity |
| N#Cc1ccc2ccc(=O)n(CCN3CC4CN(c5ccc6c(n5)NC(=O)CO6)C(=O)O[C@@H]4C3)c2c1 (stereo in doubt) [Compound 12, 1-{2-[(4aR,7aS)-2-oxo-3-{3-oxo-2H,3H,4H-pyrido[3,2-b][1,4]oxazin-6-yl}-octahydropyrrolo[3,4-e][1,3]oxazin-6-yl]ethyl}-2-oxo-1,2-dihydroquinoline-7-carbonitrile] | 10 to 100 (≈ 20.6 to 206 µM) | < 1 | < 1 | < 1 | < 1 | < 1 | 1 to 10 (≈ 2.06 to 20.6 µM) | > 100 | 1 to 10 (≈ 2.06 to 20.6 µM) | – | – | – | – | – | – | – | – | – | – | – | MIC (E. coli NCTC 13476; Escherichia coli, NCTC13476, 16-20 h, read-out: MIC): 1 to 10 µg/mL (≈ 2.06 to 20.6 µM); MIC (E. coli ATCC BAA-2452; Escherichia coli, read-out: MIC): < 1 µg/mL; MIC ([10]; Acinetobacter baumannii, ATCC19606, read-out: MIC): 1 to 10 µg/mL (≈ 2.06 to 20.6 µM); Fold increase in MIC against E. coli MG1655 S83L (E. coli MG1655 S83L): 1 fold; MIC (E. coli MG1655 WT; Escherichia coli, MG1655): < 1 µg/mL; Fold increase in MIC against E. coli MG1655 D87G (E. coli MG1655 D87G): 1 fold |

— patent US20210179636A1, “ANTIBACTERIAL COMPOUNDS” (priority 2016, published 2021)
